In patent publication US20260250318A1, “COMPOSITIONS AND METHODS FOR CROSSING THE BLOOD BRAIN BARRIER” (VOYAGER THERAPEUTICS, INC., priority 2022, published 2026):

Test system: brains, heart, liver, muscle, and DRG of the NHPs
Test: Maturation of TTM-001 and TTM-002 capsids, NGS enrichment in NHP tissues
Type: in vivo
Settings: NGS fold-enrichment of matured AAV capsid variants; NHP brain, RNA; relative to AAV9 control
In short: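 Variants carry mutations within and flanking the loop IV peptide insert: positions 450–466 were triplet-randomized, while positions 449–466 received low-frequency point mutations. The combined pool went into two NHPs, and each peptide was scored by NGS enrichment ratio against AAV9.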

Sequence	Fold Enrichment relative to AAV9, Brain (NHP)
KAEIGHDSPHKSGQNQQT	63.249 fold

Same assay, conditions: NHP DRG; relative to AAV9 control

Sequence	Fold Enrichment relative to AAV9, DRG (NHP)
KAEIGHDSPHKSGQNQQT	0.000 fold

Same assay, conditions: NHP heart; relative to AAV9 control

Sequence	Fold Enrichment relative to AAV9, Heart (NHP)
KAEIGHDSPHKSGQNQQT	0.000 fold

Same assay, conditions: NHP liver, DNA; relative to AAV9 control

Sequence	Fold Enrichment relative to AAV9, Liver DNA (NHP)
KAEIGHDSPHKSGQNQQT	0.024 fold

Same assay, conditions: NHP liver, RNA; relative to AAV9 control

Sequence	Fold Enrichment relative to AAV9, Liver RNA (NHP)
KAEIGHDSPHKSGQNQQT	0.060 fold

Same assay, conditions: NHP muscle; relative to AAV9 control

Sequence	Fold Enrichment relative to AAV9, Muscle (NHP)
KAEIGHDSPHKSGQNQQT	0.000 fold

Test system: brain
Test: Maturation of TTM-002 capsid, NGS enrichment in brain of CD-1 Outbred mice
Type: in vivo
Settings: NGS fold-enrichment in the brain of CD-1 Outbred mice; intravenous, 1.0×10^12 VG/dose, 14 days; RNA; relative to non-matured TTM-002 control
Description: This Example describes maturation of the TTM-001 (SEQ ID NO: 981 (amino acid) and 983 (DNA), comprising SEQ ID NO: 941) and TTM-002 (SEQ ID NO: 982 (amino acid) and 984 (DNA), comprising SEQ ID NO: 2) capsid variants to further enhance their transduction and biodistribution in the central nervous system and evolve the AAV capsid variants to provide further cross-species compatibility. Two approaches were used to mature the TTM-001 and TTM-002 capsid sequences in order to randomize and mutate within and around the peptide insert comprised within loop IV of the capsid variant. […] In the first maturation approach, sets of three contiguous amino acids were randomized across the mutagenesis region in the TTM-001 and TTM-002 sequences, which spanned from position 450 to position 466, numbered according to SEQ ID NO: 981 and 982. In the second maturation approach, mutagenic primers were used to introduce point mutations at a low frequency, scattered across the mutagenesis region in the TTM-001 and TTM-002 sequences ranging from position 449 to position 466, numbered according to SEQ ID NO: 981 and 982. AAV capsid variants arising from each maturation approach for TTM-001 were pooled together and AAV capsid variants arising from each maturation approach for TTM-002 were also pooled together, for subsequent testing and characterization in mice.
The library of pooled matured AAV capsid variants generated from TTM-001 or library of pooled matured AAV capsid variants generated from the TTM-002 matured AAV capsid variant each were intravenously injected into the tail vein of three female CD-1 Outbred mice (Charles River) at a dose of 1.0×10^12 VG/dose. After 14-days in life, the brains of the mice were isolated and RNA was extracted. Following RNA recovery and RT-PCR amplification, a systematic NGS enrichment analysis was performed to calculate the fold enrichment ratio relative to the corresponding TTM-001 or TTM-002 control, and the peptides comprised within the variants were identified. The data for the TTM-001 matured capsid variants is provided in Table 13 and the data for the TTM-002 matured capsid variants is provided in Table 14.

Sequence	Fold enrichment over TTM-002
KAEIGHDSPHKSGQNQQT	2.17
KIESGHDSPHKSGQNQQT	2.11
KIETGHDSPHKSGQNQQT	2.38
KIEVGHDSPHKSGQNQQT	2.16
KIEYGHDSPHKSGQNQQT	2.41
KIINGHDSPHKSGLTQQT	2.17
KIPEGHDSPHKSGQNQQT	2.54
KISNGHDSPHKSAQNQQT	2.03
KLEWGHDSPHKSGQNQQT	2.14
KLEYGHDSPHKSGQNQQT	2.33
KLPEGHDSPHKSGQNQQT	2.19
KMDAGHDSPHKSGQNQQT	2.15
KMDGGHDSPHKSGQNQQT	2.09
KMEAGHDSPHKSGQNQQT	2.12
KMEFGHDSPHKSGQNQQT	2.21
KMEGGHDSPHKSGQNQQT	2.72
KMEIGHDSPHKSGQNQQT	2.34
KMELGHDSPHKSGQNQQT	2.13
KMEMGHDSPHKSGQNQQT	2.16
KMESGHDSPHKSGQNQQT	2.18
KMETGHDSPHKSGQNQQT	2.12
KMEVGHDSPHKSGQNQQT	2.11
KMEWGHDSPHKSGQNQQT	2.38
KMEYGHDSPHKSGQNQQT	2.71
KMPEGHDSPHKSGQNQQT	3.18
KNMNGHDSPHKSGQNTHS	2.06
KQEVGHDSPHKSGQNQQT	2.07
KQQQGHDSPHKSGQNQQT	2.01

Sequence	Fold enrichment over TTM-002
KRINGHDSPHKSGQKQQN	2.34
KTAKDHDSPHKSGQNQQT	2.11
KTANEHDSPHKSGQNQQT	2.05
KTGNGHDSPHKSGQYQQT	2.03
KTIKDNDSPHKSGQNQQT	2.27
KTINGHDSPHINGQKQQT (KTINGHDSPHTNGQKQQT)	2.38
KTINGHDSPHKRGQHRQT	4.20
KTINGHDSPHKSAQNQWT	2.07
KTINGHDSPHKSGRRRQT	2.04
KTINGHDSPHKSRQNDQT	2.01
KTINGHDSPHLCGQNQQT	2.59
KTINGHDSPHLLWQNQQT	2.12
KTINGHDSPHVIDQNQQT (KTINGHDSPHVTDQNQQT)	5.20
KTINGHDSPHWLLQNQQT	2.37
KTINGHESPHKSAQNHQT	2.07
KTINGHLSPHYFGQNQQT	2.41
KTINGHLSPHYYGQNQQT	2.13
KTINGHPSPHYLGQNQQT	2.14
KTINGHSSPHYFGQNQQT	2.05
KTINGHYSPHLFGQNQQT	2.02
KTINGNYSPHKIGQNQQT	2.02
KTINRQRSPHKSGQNQQT	2.11
KTPQDHDSPHKSGQNQQT	2.00
KTPWEHDSPHKSGQNQQT	2.05
KTSNGDDSPHKSGRNQQT	2.17
KVEWGHDSPHKSGQNQQT	2.15
KVEYGHDSPHKSGQNQQT (peptide inserted in AAV capsid)	2.17

Test system: brain
Test: Matured TTM-001 and TTM-002 variants, NGS enrichment in mouse brain
Type: in vivo, mice
Settings: mouse brain; relative to AAV9 control

Sequence	Fold Enrichment relative to AAV9, Brain (Mouse)
KAEIGHDSPHKSGQNQQT	27.173 fold
